Source: patent US20240009205A1, “THERAPEUTIC COMBINATION FOR THE TREATMENT OF BREAST CANCER” (IFOM - FONDAZIONE ISTITUTO FIRC DI ONCOLOGIA MOLECOLARE, priority 2020, published 2024)
Like-named read-outs stand apart in the source and are kept apart here.

Experiments:
[1] = system: EGR1, PTEN and 4E-BP1 levels in MCF7 cells; test: immunoblotting of EGR1, PTEN and 4E-BP1 in MCF7; assay type: cell-based, human; conditions: supplementation
Method: For protein lysate generation from cultured cells, 5×10^4 MCF7, T47D or ZR-75-1 cells were plated in 6-well plates in CTR medium. After 24 h medium was removed, cells were washed with PBS and incubated either in CTR or STS medium. […] Where indicated, cells were supplemented with insulin ([…]), IGF1 (5 ng/ml), leptin ([…]), or 17β-estradiol (100 nM). 24 h later, cells were washed and protein lysates were generated as described elsewhere^34,35. Protein lysates from primary tumors or mouse uteri were obtained using TissueRuptor (Quiagen). Proteins (35 μg) were separated by SDS-PAGE, transferred to a PVDF membrane (Immobilon-P, Millipore S.p.A.), and detected with the following antibodies: anti-phospho-AKT (Ser473; #4058), anti-AKT (#9272), anti-PTEN (#9552), anti-phospho-p70S6kinase (Thr389; #9206), anti-p70S6kinase (#9202), anti-4E-BP1 (#4923), anti-phospho-eIF4E ([…]; #9741), anti-phospho-RB (Ser807/811; #9308), anti-RB (#9309), anti-CCND1 (#2978) were all from Cell Signaling Technology; anti-phospho-AMPK (Thr172; PA5-2 17831), anti-AMPK (PA5-29679), anti-EGR1 (MA5-15008) were from Thermo Fisher; anti-β-actin was from Santa Cruz Biotechnology. Band intensities were quantified by Quantity One SW software (Bio-Rad Laboratories, Inc.) using standard enhanced chemiluminescence.

[2] = system: MCF7 cells; test: cell viability assay, control and EGR1-silenced MCF7; assay type: cell-based, human
[3] = system: ER transcriptional activity; test: ER luciferase reporter assay and ER target gene expression; assay type: cell-based, human; conditions: HR+ BC cell lines, TFF1, PGR, GREB1 expression
[4] = system: HR+/HER2− BC cell lines; conditions: cited from earlier work
[5] = system: metastases-derived organoids from patients with HR+ BC; test: organoid viability assay; assay type: cell-based, human; conditions: TMX with STS medium
[6] = system: MCF7 cells; test: gene expression microarrays and GSEA in MCF7; assay type: cell-based, human; conditions: 5 μM TMX combined with STS

With C[C@]12CC[C@@H]3c4ccc(O)cc4CC[C@H]3[C@@H]1CC[C@@H]2O [17β-estradiol] the “increase in EGR1, PTEN and 4E-BP1 induced by the TMX-STS combination” value [1] was “prevented the increase in EGR1, PTEN and 4E-PBP1”.
With AZD5363 the “protection of EGR1-silenced BC cells from combined ET and STS” value [2] was “abolished such protection”.
In the case of C[C@]12CC[C@@H]3c4ccc(O)cc4C[C@@H](CCCCCCCCC[S+]([O-])CCCC(F)(F)C(F)(F)F)[C@H]3[C@@H]1CC[C@@H]2O (stereo partly drawn) [FULV, fulvestrant], the “ER inhibition under STS” value [3] is listed as “enhanced” and the “antitumor activity under STS (low-serum, low-glucose)” value [4] is listed as “increased the antitumor activity”.
With CC(C)NC[C@@H](C(=O)N1CCN(c2ncnc3c2[C@H](C)C[C@H]3O)CC1)c1ccc(Cl)cc1 [GDC0068] the “protection of EGR1-silenced BC cells from combined ET and STS” value ([2]; GDC0068 1 μM, AZD5363 400 nM, LY294002 2 μM) was “abolished such protection”.
For CC/C(=C(\c1ccccc1)c1ccc(OCCN(C)C)cc1)c1ccccc1 [TMX, tamoxifen], the “antitumor activity under STS” value [5] was “increased the antitumor activity”, the “ER inhibition under STS” value [3] was “enhanced” and the “cell cycle-related gene categories (GSEA)” value [6] was “downregulation”. The “antitumor activity under STS (low-serum, low-glucose)” value [4] was “increased the antitumor activity”.
